From US20040171680A1, “Treating Syndrome X with substituted tetralins and indanes” (priority 2002, published 2004)
Where two headings read alike, the source gives them in different places.

Key:
Type in all cases: cell-based
[1] = biological target: T1, PPARα (Rattus norvegicus, UniProt P37230); experiment: HD bDNA Assay (HD gene induction)
T1 construct: H4IIE rat hepatoma cell line was obtained from ATCC; host or cells: H4IIE rat hepatoma cells
T1 sequence (P37230 1-468): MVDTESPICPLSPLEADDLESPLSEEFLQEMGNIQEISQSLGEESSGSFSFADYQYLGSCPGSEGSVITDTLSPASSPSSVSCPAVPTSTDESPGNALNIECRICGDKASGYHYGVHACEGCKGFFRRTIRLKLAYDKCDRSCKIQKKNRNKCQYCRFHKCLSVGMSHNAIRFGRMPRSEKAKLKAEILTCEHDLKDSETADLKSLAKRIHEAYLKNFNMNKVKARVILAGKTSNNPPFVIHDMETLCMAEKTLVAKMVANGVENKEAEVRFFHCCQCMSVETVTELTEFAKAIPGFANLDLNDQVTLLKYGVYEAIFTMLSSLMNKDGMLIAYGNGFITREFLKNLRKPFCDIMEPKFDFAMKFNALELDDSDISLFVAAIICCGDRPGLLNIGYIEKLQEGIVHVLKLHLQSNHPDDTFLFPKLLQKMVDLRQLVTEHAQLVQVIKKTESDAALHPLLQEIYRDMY
Procedure: HD bDNA Assay H4IIE rat hepatoma cell line was obtained from ATCC. Cells were cultured in 175 cm^2 tissue culture flask or seeded in 96-well plate with (high serum content, 10% fetal bovine serum and 10% calf serum) culture medium and maintained at 37° C. and 5% CO2 throughout study. Twenty-four hours after the initial seeding of the 96-well plate by hand (approximate 100,000/well), the HD gene induction assay was initiated. Media was removed and replaced with 100 ul of low serum culture media (5% charcoal/dextran treated calf serum) containing vehicle (DMSO) or test compounds or standard. Cells returned to incubator for 24 hours culture. At the termination of the challenge, 50 ul lysis buffer with HD gene specific CE, LE, BL probes was added directly into each well to initiate the bDNA HD mRNA assay. The branched DNA assay was performed according to the manufacturer's protocol (Bayer Diagnostics; Emeryville. Calif.). At the end of the assay, the luminescence was quantitated in Dynex MLX microtiter plate luminometer. EC50's were determined by non-linear regression with a sigmoidal fit utilizing Graphpad Prism.

[2] = biological target: T2, PPARγ (Homo sapiens, UniProt P37231); experiment: aP2 Assay for PPAR gamma Agonists (bDNA aP2 mRNA in preadipocytes); settings: fold induction; PPARγ standard: FI = 70.3
T2 construct: Following the challenge of the preadipocytes, cells may be lysed with lysis buffer; endogenous in cells; host or cells: preadipocytes
T2 sequence (P37231 1-505): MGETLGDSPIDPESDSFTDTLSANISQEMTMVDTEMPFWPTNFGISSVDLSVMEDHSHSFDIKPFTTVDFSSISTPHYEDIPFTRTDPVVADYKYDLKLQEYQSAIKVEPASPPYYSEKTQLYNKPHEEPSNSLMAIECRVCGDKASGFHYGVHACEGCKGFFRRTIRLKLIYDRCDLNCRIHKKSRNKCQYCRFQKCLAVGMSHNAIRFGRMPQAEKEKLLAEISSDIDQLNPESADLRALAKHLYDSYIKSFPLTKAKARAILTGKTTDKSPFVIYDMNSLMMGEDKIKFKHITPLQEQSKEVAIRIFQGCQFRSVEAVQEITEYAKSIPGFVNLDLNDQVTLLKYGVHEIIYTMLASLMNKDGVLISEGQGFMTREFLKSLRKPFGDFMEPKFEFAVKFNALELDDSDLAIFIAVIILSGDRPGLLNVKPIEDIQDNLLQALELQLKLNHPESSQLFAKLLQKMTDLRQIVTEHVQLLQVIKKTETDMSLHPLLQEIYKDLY
Text: aP2 Assay for PPAR gamma Agonists
The procedure is described in detail in Burris et al., Molecular Endocrinology, 1999, 13:410, which is hereby incorporated by reference in its entirety, and aP2 assay results of agonist intrinsic activity may be presented as fold increase over vehicle in induction of aP2 mRNA production.
Twenty-four hours after the initial seeding of the 96-well plates by hand (around 20,000/well), the differentiation assay may be initiated. Medium may be removed and replaced with […] of differentiation medium containing vehicle (DMSO) or test compounds. Cells may be returned to incubator for 24 hours culture. At the termination of the challenge, medium may be removed and 100 ul of lysis buffer may be added to initiate the bDNA aP2 mRNA assay. The branched DNA assay may be performed according to the manufacturer's protocol (Bayer Diagnostics; Emeryville, Calif.). Result may be expressed as the fold increase of aP2 mRNA production activated over vehicle controls. EC50's and Emax may be determined by non-linear regression with a sigmoidal fit curve.
Following the challenge of the preadipocytes, cells may be lysed with lysis buffer (Bayer Diagnostics) containing the aP2 oligonucleotides. After a 15 minute incubation at 53° C. or 30 minutes at 37° C. incubator, 70 ul of the lysis buffer from each well may be added to a corresponding capture well (preincubated with 70 ul of blocking buffer (Bayer Diagnostics)). The capture plate may be incubated overnight at 53° C. in a plate incubator (Bayer Diagnostics). After this incubation, the bDNA and labeled probes may be annealed as directed by the manufacturer. Following a 30-minute incubation with the luminescent alkaline phosphatase substrate, dioxitane, the luminescence may be quantitated in a Dynex MLX microtiter plate luminometer. Oligonucleotide probes designed to anneal to the aP2 mRNA and function in the bDNA mRNA detection system are designed with ProbeDesigner software (Bayer Diagnostics). This software package analyzes a target sequence of interest with a series of algorithms in order to determine which regions of the sequence can perform as locations for capture, label, or spacer probe annealing. The sequences of the oligonucleotides are as follows: […]

[3] = biological target: T3, PPARδ (Homo sapiens, UniProt Q03181); experiment: Transfection Assay for PPARδ Receptors (PPAR-Gal4 / Gal4-Luciferase reporter in HEK293 cells); settings: for PPARδ FI: fold induction, PPARδ standard: FI = 36.1; for EC50: values in square brackets
T3 construct: a Gal4-Luciferase reporter is co-transfected
T3 sequence (Q03181 171-441 limits assumed): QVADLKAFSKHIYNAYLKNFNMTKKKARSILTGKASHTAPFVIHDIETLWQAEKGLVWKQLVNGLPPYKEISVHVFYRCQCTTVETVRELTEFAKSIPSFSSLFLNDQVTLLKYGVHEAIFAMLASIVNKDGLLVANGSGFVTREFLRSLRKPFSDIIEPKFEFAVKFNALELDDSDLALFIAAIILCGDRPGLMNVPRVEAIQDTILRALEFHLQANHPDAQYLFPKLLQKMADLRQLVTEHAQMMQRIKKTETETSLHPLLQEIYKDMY
Procedure: Transfection Assay for PPARδ Receptors
HEK293 cells were grown in DMEM/F-12 Media supplemented with 10% FBS and glutamine (GIBCOBRL). The cells were co-transfected with DNA for PPAR-Gal4 receptor and Gal4-Luciferase Reporter using the DMRIE-C Reagent. On the following day, the DNA-containing medium were replaced with 5% Charcoal treated FBS growth medium. After six hours, cells were seeded in 96 well plate and incubated at 37° C. in CO2 incubator overnight. Cells were challenged by test compounds and incubated for 24 hours at 37° C. in 5% CO2 incubator. Luciferase activity was assayed using the Steady-Glo Luciferase Assay Kit from Promega. DMRIE-C Reagent was purchased from GIBCO Cat. No.10459-014. OPTI-MEM I Reduced Serum Medium was purchased from GIBCO Cat. No. 31985. Steady-Glo Luciferase Assay Kit was obtained from Promega Part# E254B.

[4] = in section F, target not named there, values match the PPARα column, read-out: EC50
[5] = H4IIE rat hepatoma cells, 24 hours, read-out: PPARα EC50

Structure (SMILES)	EC50 [1, 4]	PPARγ FI [2]	EC50 [1, 5]	PPARδ FI [3]	EC50 [3]
CCCCCN(C(=O)Nc1ccc(-c2ccccc2)cc1)C1Cc2ccc(SC(C)(C)C(=O)O)cc2C1 (centres unmarked) [Example 12]	183 nM	11	–	–	–
CCCCCCN(C(=O)Nc1ccc(C(C)C)cc1)C1Cc2ccc(SC(C)(C)C(=O)O)cc2C1 (centres unmarked) [Example 13]	184 nM	1.2	–	–	–
CC(C)(Sc1ccc2c(c1)CC(N(CCCC1CCCC1)C(=O)Nc1ccc(OC(F)(F)F)cc1)C2)C(=O)O (centres unmarked) [Example 28, 2-{2-[1-(3-Cyclopentylpropyl)-3-(4-trifluoromethoxyphenyl)ureido]indan-5-ylsulfanyl}-2-methylpropionic acid]	–	–	323 nM	8.2	–
CCCN(C(=O)Nc1ccc(OC)cc1)C1Cc2ccc(SC(C)(C)C(=O)O)cc2C1 (centres unmarked) [Example 32, 2-{2-[3-(4-Methoxyphenyl)-1-propylureido]indan-5-ylsulfanyl}-2-methylpropionic acid]	–	–	497 nM	1.5	–
CCCN(C(=O)Nc1cc(C)cc(C)c1)C1Cc2ccc(SC(C)(C)C(=O)O)cc2C1 (centres unmarked) [Example 33, 2-{2-[3-(3,5-Dimethylphenyl)-1-propylureido]indan-5-ylsulfanyl}-2-methylpropionic acid]	–	–	537 nM	0.8	–
CCCN(C(=O)Nc1ccc(C(F)(F)F)cc1)C1Cc2ccc(SC(C)(C)C(=O)O)cc2C1 (centres unmarked) [Example 35, 2-Methyl-2-{2-[1-propyl-3-(4-trifluoromethylphenyl)ureido]indan-5-ylsulfanyl}-propionic acid]	–	–	772 nM	5.6	–
CC(C)(Sc1ccc2c(c1)CC(N(CCCC1CCCC1)C(=O)Nc1ccccc1)C2)C(=O)O (centres unmarked) [Example 37, 2-{2-[1-(3-Cyclopentylpropyl)-3-phenylureido]indan-5-ylsulfanyl}-2-methylpropionic acid]	–	–	838 nM	1.9	–
CCCCCN(C(=O)Nc1ccc2ccccc2c1)C1Cc2ccc(SC(C)(C)C(=O)O)cc2C1 (centres unmarked) [Example 39, 2-Methyl-2-[2-(3-naphthalen-2-yl-1-pentylureido)indan-5-ylsulfanyl]propionic acid]	–	–	1000 nM	9.3	–
CCCN(C(=O)Nc1ccc(OC(F)(F)F)cc1)C1CCc2ccc(SC(C)(C)C(=O)O)cc2C1 (centres unmarked) [Example 46, 2-Methyl-2-{7-[1-propyl-3-(4-trifluoromethoxyphenyl)ureido}-5,6,7,8-tetrahydronaphthalen-2-ylsulfanyl}propionic acid]	–	–	1390 nM	6.0	–
CCN(C(=O)Nc1ccc(OC(F)(F)F)cc1)C1CCc2cc(OC(C)(C)C(=O)O)ccc2C1 (centres unmarked) [Example 48, 2-{6-[1-Ethyl-3-(4-trifluoromethoxyphenyl)ureido]-5,6,7,8-tetrahydronaphthalen-2-yloxy}-2-methylpropionic acid]	–	–	14 nM	–	> 3000 nM

Next, values leading:

EC50 [1, 4]	PPARγ FI [2]	EC50 [1, 5]	PPARδ FI [3]	EC50 [3]	Structure (SMILES)
45 nM	–	–	–	> 3000 nM	CCN(C(=O)Nc1ccc(OC(F)(F)F)cc1)C1CCc2cc(SC(C)(C)C(=O)O)c(OC)cc2C1 (centres unmarked) [Example 47, 2-{6-[1-Ethyl-3-(4-trifluoromethoxyphenyl)ureido]-3-methoxy-5,6,7,8-tetrahydronaphthalen-2-ylsulfanyl}-2-methylpropionic acid]
27 nM	–	–	–	> 10000 nM	CCN(C(=O)Nc1ccc(OC(F)(F)F)cc1)C1CCc2cc(SC(C)(C)C(=O)O)c(Cl)cc2C1 (centres unmarked) [Example 51, 2-{6-[1-Ethyl-3-(4-trifluoromethoxyphenyl)ureido]-3-chloro-5,6,7,8-tetrahydronaphthalen-2-ylsulfanyl}-2-methylpropionic acid]
17 nM	–	–	–	> 3000 nM	CCN(C(=O)Nc1ccc(OC(F)(F)F)cc1)C1CCc2cc(SC(C)(C)C(=O)O)c(Br)cc2C1 (centres unmarked) [Example 52, 2-{6-[1-Ethyl-3-(4-trifluoromethoxyphenyl)ureido]-3-bromo-5,6,7,8-tetrahydronaphthalen-2-ylsulfanyl}-2-methylpropionic acid]
42 nM	–	–	–	873 nM	CCN(C(=O)Nc1ccc(OC(F)(F)F)cc1)C1CCc2cc(SC(C)(C)C(=O)O)c(C)cc2C1 (centres unmarked) [Example 53, 2-{6-[1-Ethyl-3-(4-trifluoromethoxyphenyl)ureido]-3-methyl-5,6,7,8-tetrahydronaphthalen-2-ylsulfanyl}-2-methylpropionic acid]
131 nM	–	–	–	> 3000 nM	CCN(C(=O)Nc1ccc(OC(F)(F)F)cc1)C1CCc2cc(SC(C)(C)C(=O)O)c(OC(F)(F)F)cc2C1 (centres unmarked) [Example 54, 2-{6-[1-Ethyl-3-(4-trifluoromethoxyphenyl)ureido]-3-trifluoromethoxy-5,6,7,8-tetrahydronaphthalen-2-ylsulfanyl}-2-methylpropionic acid]
545 nM	–	–	–	1720 nM	CCN(C(=O)Nc1ccc(OC(F)(F)F)cc1)C1CCc2cc(SC(C)(C)C(=O)O)c(-c3ccccc3)cc2C1 (centres unmarked) [Example 55, 2-{6-[1-Ethyl-3-(4-trifluoromethoxyphenyl)ureido]-3-phenyl-5,6,7,8-tetrahydronaphthalen-2-ylsulfanyl}-2-methylpropionic acid]
